Reference: patent US8173428B2, “LNA oligonucleotides and the treatment of cancer” (Santaris Pharma A/S, priority 2004, dated 2012)
Oligonucleotides are written 5' to 3', each unit as a sugar letter and its base; * is a phosphorothioate linkage, no mark a phosphodiester; rarer units and linkages stand in square brackets, end groups in braces. Plain capitals give the bases only. l = locked nucleic acid (LNA); [5mC] = 5-methylcytosine; d = 2'-deoxy (DNA)

Key:
[1] = tested on: rats; assay: i.v. acute toxicity study in rats; type: in vivo
Source text: For SEQ ID NO. 2 the following was found among others in preclinical toxicity studies: […]

[2] = tested on: human Survivin RNA; assay: Survivin mRNA knockdown in transfected 15PC3 cells by real-time PCR; type: cell-based
Procedure: Cell culturing and transfections: 15PC3 cells were seeded in 12-well plates and grown for two days at 37° C. (5% CO2) in DMEM supplemented with 10% FBS, Glutamax I and Gentamicin. When the cells were 60-70% confluent, they were transfected in duplicates with different concentrations of oligonucleotides (0.2-25 nM) using Lipofectamine 2000 (10 μg/ml). Transfections were carried out essentially as described by Dean et al. (1994, JBC 269:16416-16424). In short, cells were incubated for 10 min. with Lipofectamine in OptiMEM followed by addition of oligonucleotide to a total volume of 0.5 ml transfection mix per well. […] Cells were then harvested for protein and RNA analysis.
Total RNA was isolated using RNeasy mini kit (Qiagen). Cells were washed with PBS, and Cell Lysis Buffer (RTL, Qiagen) supplemented with 1% mercaptoethanol was added directly to the wells. After a few minutes, the samples were processed according to manufacturer's instructions.
First strand synthesis was performed using OmniScript Reverse Transcriptase kit according to the manufacturer's instructions (Qiagen). For each sample, 0.5 μg total RNA was adjusted to 12 μl and mixed with 0.2 μl poly (dT)12-18 (0.5 μg/μl) (Life Technologies), 2 μl dNTP mix (5 mM each), 2 μl 10× RT buffer, 0.5 μl RNAguard™ RNase Inhibitor (33 units/ml, Amersham) and 1 μl OmniScript Reverse Transcriptase followed by incubation at 37° C. for 60 min. and heat inactivation at 93° C. for 5 min.
To determine the relative Survivin mRNA level in oligonucleotide treated and untreated cells, the generated cDNA was used in quantitative PCR analysis using an iCycler from BioRad. The cDNA was diluted 5-fold and 8 μl was mixed with 52 μl Taqman probe master mix containing 30 μl Platinum Quantitative PCR SuperMix UDG 2×PCR master mix (Invitrogen), 3 μl 20× Taqman probe and primer mix (forward primer: 5′[…] (SEQ ID NO:29), final 0.9 μM. Reverse primer: 5′[…] (SEQ ID NO:30), final 0.6 μM and taqman probe: FAM-[…]-TAMRA (SEQ ID NO:31), final 0.1 μM) and 19 μl H2O. The 60 μl were dispersed in two wells (96 well plates) with […] in each well. For human Bcl-2 the PCR primers were: […]
The primers and probe were obtained from […] (France). To normalize any variance in sample preparation, the endogenous GAPDH mRNA was quantified using a pre-developed Taqman assay reagent from Applied Biosystems (4310884E) according to manufacturer's Instructions. Two-fold dilutions of cDNA, synthesised from untreated 15PC3 cells (expressing both Survivin and GAPDH), was used to prepare standard curves for the assays. The PCR program was as follows: 50° C. for 2 min., 95° C. for 10 min. followed by 40 cycles of 95° C. 15 sec., 60° C. 1 min. Relative quantities of Survivin mRNA were determined from the calculated threshold cycle using the iCycler IQ Real Time Detection System software.
In accordance with the present invention, a series of oligonucleotides were designed to target different regions of the human Survivin RNA, using published sequences (GenBank accession number NM_001168).
LNA oligonucleotides were evaluated for their potential to knockdown Survivin mRNA in 15PC3 cells. The data are presented as percentage down-regulation relative to mock transfected cells. Transcript steady state was monitored by Real-time PCR and normalised to the GAPDH transcript steady state, see Table 3. Note that all LNA C are 5-methyl-Cytosine.

[3] = tested on: PC-3 human prostate cancer cells; assay: PC3 xenograft tumour growth inhibition in nude mice; type: in vivo, Balb/cA-nu mice; conditions: combined with Taxol, dose schedules A and B, after 27 days, versus single agent treatment or saline
Procedure: Model: PC-3 human prostate cancer cells (ECACC) are mixed with Matrigel and injected s.c. into both flanks of female Balb/cA-nu mice on Day 0.
Dosing: Saline solution of SEQ ID NO. 2 according to schedule, 2 mg/ml working solution, dosing volume 10 ml/kg; Taxol was used in the clinical formulation. The animals were dosed according to the average group weight on Day 0.
Administration: Oligonucleotides i.p. (see FIG. 8) or intratumoural (see FIG. 9), Taxol i.v., all according to schedule
Observations: Mortality (daily), body weight (twice per week),
Tumour volume: During the experiment, tumour volume is measured twice per week and calculated according to the formula (L×D^2×0.5), where L represents the largest diameter and D the tumour diameter perpendicular to L (mm).
Antitumour activity: Mean tumour weight of treated tumours will be compared with control group.
End of study: The animals will be sacrificed by cervical dislocation. Tumours, livers and spleens will be weighed.

[4] = tested on: 15PC3 cells; assay: Caspase 3/7 assay, oligonucleotide in combination with Taxol; type: cell-based, human; conditions: 10 nM oligonucleotide with Taxol (10 nM or 100 nM), 48 hours and 72 hours
Procedure: Cell culturing: Human prostate cancer 15PC3 cells (kindly provided by Dr. F Baas, Neurozintuigen Laboratory, AMC, The Netherlands) were seeded to a density of 8×10E5 cells in T75-flasks and grown for two days at 37° C. and 5% CO2 in DMEM supplemented with 10% FBS, Glutamax and Gentamicin. Two days following seeding cells were transfected with 2-10 nM SEQ ID NO. 2 using Lipofectamine at a final conc. of 7.5 μg/ml. Transfections were carried out as described by Dean et al. (1994, JBC 269 p. 16416 16424). In short cells were incubated with Lipofectamine diluted in OptiMEM for 7-10 min followed by the addition of the oligonucleotide to total volume of 8.7 ml per T75 flask. […] Cells were harvested for either mRNA extraction, Caspase 3/7 assay or fixed, stained with PI and analysed by FACS analysis.
Caspase 3/7 assay: An equal amount of 15PC3 cells ranging from 2500-10000 cells were harvested by centrifugation at the indicated periods and plated in white 96 well plates (Nunc 136101) in DMEM. 100 μl of the highly sensitive Caspase 3/7-Glo™ Reagent (Promega) was added directly to the cells in 96 well and plates were incubated for 1 hour before recording luminescence (luciferase activity) in Luminoskan Ascent instrument from Thermo Labsystems after further 1 min lag period. The luciferase activity is measured as Relative Light Units per seconds (RLU/s). […]

[5] = Survivin mRNA down-regulation relative to mock, normalised to GAPDH, standard deviation in brackets, at least three experiments

Substance: 5′-^MeCsTs^MeCsAsastscscsastsgsgs^MeCsAsGsc-3′ (l[5mC]*lT*l[5mC]*lA*dA*dT*dC*dC*dA*dT*dG*dG*l[5mC]*lA*lG*dC) [SEQ ID NO. 2]
- lowest lethal dose [1]: 1000 mg/kg
- Survivin mRNA expression ([2]; 2 nM combined with 10 nM Taxol, 24 hours and 48 hours, relative to mock (0.1% DMSO)): down-regulated
- Survivin mRNA expression ([2]; 2 nM, 24 hours and 48 hours, relative to mock (0.1% DMSO)): down-regulated
- Survivin mRNA expression ([2]; 10 nM, 24 hours, single agent or combined with control oligonucleotides): have effects on Survivin and Bcl-2 expression
- IC50 [2, 5]: 2.9 nM
- IC75 [nM] [2, 5]: 4.8 (0.3) nM
- Tumour weight [3]: Tumour weight reduction
- Induction of apoptosis (Caspase 3/7 activity) in combination with Taxol [4]: clear additive effect on the induction of apoptosis
